Experimental data: ChEMBL document CHEMBL5126627, “Structure-Kinetic Relationship Studies for the Development of Long Residence Time LpxC Inhibitors” (J Med Chem, 2022)
Values after ≈ are worked out from the molar mass of the structure shown. Active and inactive are the calls of the source. The rule behind the calls is not given here.

Tests used:
[1] = system: Pseudomonas aeruginosa; test: Antibacterial activity against Pseudomonas aeruginosa paEP assessed as inhibition of bacterial growth incubated for 24 hrs by microdilution method; format: functional
[2] = system: Pseudomonas aeruginosa; test: Antibacterial activity against Pseudomonas aeruginosa PAO1 assessed as inhibition of bacterial growth incubated for 24 hrs by microdilution method; format: functional
[3] = system: Pseudomonas aeruginosa; test: Binding affinity to Pseudomonas aeruginosa LpxC assessed as binding constant (Koff) incubated for 18 hrs by fluorescence based assay
[4] = system: Pseudomonas aeruginosa; test: Antibacterial activity against Pseudomonas aeruginosa PAO1 assessed as post antibiotic effect by measuring time required for increase in 1 log10 CFU/ml of bacteria at 4X MIC incubated for 1 hr followed by compound washout; format: functional
[5] = Binding affinity to Pseudomonas aeruginosa LpxC assessed as inhibition constant incubated for 18 hrs by fluorescence based assay
[6] = system: Pseudomonas aeruginosa; test: Binding affinity to Pseudomonas aeruginosa LpxC assessed as binding constant (kon) incubated for 18 hrs by fluorescence based assay
[7] = system: Pseudomonas aeruginosa; test: Binding affinity to Pseudomonas aeruginosa LpxC assessed as residence time incubated for 18 hrs by fluorescence based assay
[8] = system: Pseudomonas aeruginosa; test: Antibacterial activity against Pseudomonas aeruginosa PAO1 assessed as post antibiotic effect by measuring time required for increase in 1 log10 CFU/ml of bacteria at 16X MIC incubated for 1 hr followed by compound washout; format: functional
[9] = system: Pseudomonas aeruginosa; test: Bactericidal activity against Pseudomonas aeruginosa PAO1 assessed as reduction in 3log 10 CFU/ml at 4 to 16 times MIC incubated for 16 hrs by time-kill assay; format: functional, organism-based
[10] = system: Pseudomonas aeruginosa; test: Binding affinity to Pseudomonas aeruginosa LpxC assessed as residence time incubated for 18 hrs by spin column assay
[11] = system: Pseudomonas aeruginosa; test: Antibacterial activity against Pseudomonas aeruginosa PAO1 assessed as post antibiotic effect by measuring time required for increase in 1 log10 CFU/ml of bacteria at 8X MIC incubated for 1 hr followed by compound washout; format: functional
[12] = system: Escherichia coli; test: Antibacterial activity against Escherichia coli MB2884; format: functional
[13] = system: Pseudomonas aeruginosa; test: Antibacterial activity against Pseudomonas aeruginosa ATCC 27853; format: functional
[14] = system: Escherichia coli; test: Antibacterial activity against Escherichia coli ATCC 25922; format: functional

Row | MIC [12] [µg/mL] | MIC [13] [µg/mL] | MIC [14] [µg/mL] | SMILES | MIC [1] [µM] | MIC [2] [µM] | K [3] [s⁻¹] | Time [4] [h] | Ki [5] [pM] | K [6] [M⁻¹ s⁻¹] | TIME [7] [h] | Time [8] [h] | Activity [9] | TIME [10] [h] | Time [11] [h]
1 | – | – | – | CC(CCn1ccc(-c2ccc(-c3cn(CC45CC(C4)C5)nn3)cc2)cc1=O)(C(=O)NO)S(C)(=O)=O (racemic) | 0.78 (≈ 0.399 µg/mL) | 12.5 (≈ 6.4 µg/mL) | 0.00015 | 4 | 2.1 | 8.52e+07 | – | – | – | – | –
2 | – | – | – | COc1ccc(-c2ccc(CNC3(C(=O)NO)CCS(=O)(=O)CC3)cc2)c(F)c1 | 0.03 (≈ 0.0127 µg/mL) | 0.4 (≈ 0.169 µg/mL) | 0.00053 | 1 | 37.9 | 1.66e+07 | 0.533 | 1.7 | Active | 79 | 1.3
3 | – | – | – | COc1ccc(-c2ccn(CCC(C)(C(=O)NO)S(C)(=O)=O)c(=O)c2)cc1 (racemic) | 0.8 (≈ 0.316 µg/mL) | 3.12 (≈ 1.23 µg/mL) | – | – | – | – | – | – | – | – | –
4 | – | – | – | CC(CCn1ccc(-c2ccc(-c3cn(Cc4ccc(F)cc4)nn3)cc2)cc1=O)(C(=O)NO)S(C)(=O)=O (racemic) | 0.05 (≈ 0.027 µg/mL) | 1.56 (≈ 0.842 µg/mL) | 0.00025 | 1.7 | 8 | 3.38e+07 | 1.14 | 3.5 | Active | 106 | 2.5
5 | 1 (≈ 3.24 µM) | – | – | CCCc1cc(C2=N[C@@H](C(=O)NO)CO2)cc(OC)c1OC | – | – | – | – | – | – | – | – | – | – | –
6 | – | 0.25 (≈ 0.677 µM) | 0.125 (≈ 0.338 µM) | CC(C)(N)[C@H](NC(=O)c1ccc(C#CC#C[C@@H]2C[C@H]2CO)cc1)C(=O)NO [ACHN-975] | – | – | – | – | – | – | – | – | – | – | –
7 | – | – | – | CC(CCn1ccc(-c2ccc(-c3cn(CC4CCCCC4)nn3)cc2)cc1=O)(C(=O)NO)S(C)(=O)=O (racemic) | 3.12 (≈ 1.65 µg/mL) | 50 (≈ 26.4 µg/mL) | 0.00017 | – | 5.5 | 3.1e+07 | 1.67 | – | – | – | –
8 | – | – | – | CC(CCn1ccc(-c2ccc(-c3cn(CCO)nn3)cc2)cc1=O)(C(=O)NO)S(C)(=O)=O (racemic) | > 12.5 | > 50 | 0.00018 | – | 3.7 | 5.96e+07 | – | – | – | – | –
9 | – | – | – | CC(CCn1ccc(-c2ccc(C(=O)NCc3ccccc3)cc2)cc1=O)(C(=O)NO)S(C)(=O)=O (racemic) | 3.12 (≈ 1.55 µg/mL) | 25 (≈ 12.4 µg/mL) | 0.0021 | – | 274 | 2.38e+07 | 0.133 | – | – | – | –
10 | – | – | – | C=CCn1cc(-c2ccc(-c3ccn(CCC(C)(C(=O)NO)S(C)(=O)=O)c(=O)c3)cc2)nn1 (racemic) | 0.78 (≈ 0.368 µg/mL) | 12.5 (≈ 5.89 µg/mL) | 0.00022 | – | 6.1 | 5.2e+07 | 1.38 | – | – | 146 | –
11 | – | – | – | CC(CCn1ccc(-c2ccc(-n3nccn3)cc2)cc1=O)(C(=O)NO)S(C)(=O)=O (racemic) | 0.4 (≈ 0.173 µg/mL) | 1.56 (≈ 0.673 µg/mL) | – | 1.4 | – | – | – | 3.4 | Active | – | 2.2
12 | – | – | – | COc1ccc(-c2ccc(CNC3(C(=O)NO)CCS(=O)(=O)CC3)cc2F)cc1 | 0.1 (≈ 0.0422 µg/mL) | 0.8 (≈ 0.338 µg/mL) | 0.00049 | – | 14.4 | 3.45e+07 | 0.572 | – | – | – | –
13 | – | – | – | CC1(Cn2cc(-c3ccc(-c4ccn(CCC(C)(C(=O)NO)S(C)(=O)=O)c(=O)c4)cc3)nn2)COC1 (racemic) | 1.56 (≈ 0.804 µg/mL) | 25 (≈ 12.9 µg/mL) | – | – | – | – | – | – | – | – | –
14 | – | – | – | CC(CCn1ccc(-c2ccc(-c3cnnn3Cc3ccccc3)cc2)cc1=O)(C(=O)NO)S(C)(=O)=O (racemic) | 12.5 (≈ 6.52 µg/mL) | 50 (≈ 26.1 µg/mL) | 0.00187 | – | 67.7 | 2.78e+07 | 0.15 | – | – | – | –
15 | – | – | – | C[C@@H](O)C(NC(=O)c1ccc(-c2cn(Cc3ccccc3)nn2)cc1)C(=O)NO (mixture of isomers) | > 12.5 | > 50 | – | – | – | – | – | – | – | – | –
16 | – | – | – | CC(CCn1ccc(-c2ccc(NC(=O)Cc3ccccc3)cc2)cc1=O)(C(=O)NO)S(C)(=O)=O (racemic) | 3.12 (≈ 1.55 µg/mL) | 50 (≈ 24.9 µg/mL) | 0.0043 | – | 95.4 | 4.48e+07 | 0.0667 | – | – | – | –
17 | – | – | – | CC(CCn1ccc(-c2ccc(-c3cn(CC4CC4)nn3)cc2)cc1=O)(C(=O)NO)S(C)(=O)=O (racemic) | 0.4 (≈ 0.194 µg/mL) | 3.12 (≈ 1.52 µg/mL) | 0.00025 | 1.6 | 10.2 | 2.64e+07 | 1.11 | 3.1 | Active | 191 | 2.2
18 | – | – | – | CC(CCn1ccc(-c2ccc(-c3cn(Cc4ccncc4)nn3)cc2)cc1=O)(C(=O)NO)S(C)(=O)=O (racemic) | 6.25 (≈ 3.27 µg/mL) | 50 (≈ 26.1 µg/mL) | – | – | – | – | – | – | – | – | –
19 | – | – | – | CC(CCn1ccc(-c2ccc(-c3cn(Cc4ccccn4)nn3)cc2)cc1=O)(C(=O)NO)S(C)(=O)=O (racemic) | 0.2 (≈ 0.105 µg/mL) | 6.25 (≈ 3.27 µg/mL) | – | – | 5.5 | 3.72e+07 | – | – | – | – | –
20 | – | – | – | CC(CCn1ccc(-c2ccccc2)cc1=O)(C(=O)NO)S(C)(=O)=O (racemic) | 0.2 (≈ 0.0729 µg/mL) | 3.12 (≈ 1.14 µg/mL) | – | 0.7 | – | – | – | 1.3 | Active | – | 1.1
21 | – | – | – | CC(CCn1ccc(-c2ccc(-c3cn(Cc4ccccc4)nn3)cc2)cc1=O)(C(=O)NO)S(C)(=O)=O (racemic) | 0.78 (≈ 0.407 µg/mL) | 12.5 (≈ 6.52 µg/mL) | 0.00032 | – | 10.6 | 4.38e+07 | 0.955 | – | – | – | –
22 | – | – | 0.2 (≈ 0.457 µM) | C[C@@H](O)[C@H](NC(=O)c1ccc(C#Cc2ccc(CN3CCOCC3)cc2)cc1)C(=O)NO | – | – | – | – | – | – | – | – | – | – | –
23 | – | > 0.25 | 1 (≈ 2.38 µM) | O=C(NO)[C@H](Cc1ccc2ccccc2c1)NS(=O)(=O)c1ccc2ccccc2c1 | – | – | – | – | – | – | – | – | – | – | –
24 | – | – | – | COc1ccc(-c2ccn(CC[C@](C)(C(=O)NO)S(C)(=O)=O)c(=O)c2)c(F)c1 | – | 0.625 (≈ 0.258 µg/mL) | – | – | – | – | – | – | – | – | –
25 | – | – | – | CC(CCn1ccc(-c2ccc(-c3cn(Cc4ccc([N+](=O)[O-])cc4)nn3)cc2)cc1=O)(C(=O)NO)S(C)(=O)=O (racemic) | 0.1 (≈ 0.0567 µg/mL) | 6.25 (≈ 3.54 µg/mL) | 0.00021 | – | 7 | 3.07e+07 | 1.31 | – | – | – | –
26 | – | – | – | CC(CCn1ccc(-c2ccc(-c3cn(Cc4cccnc4)nn3)cc2)cc1=O)(C(=O)NO)S(C)(=O)=O (racemic) | – | – | 0.00014 | – | 3.2 | 4.28e+07 | 2.02 | – | – | – | –
27 | – | – | – | CC(CCn1ccc(-c2ccc(-c3cn(Cc4ccncn4)nn3)cc2)cc1=O)(C(=O)NO)S(C)(=O)=O (racemic) | 3.12 (≈ 1.64 µg/mL) | 50 (≈ 26.2 µg/mL) | 0.00017 | – | 4.2 | 4.43e+07 | 1.71 | – | – | – | –
28 | – | – | – | CC(CCn1ccc(-c2ccc(CN3CCOCC3)cc2)cc1=O)(C(=O)NO)S(C)(=O)=O (racemic) | – | 50 (≈ 23.2 µg/mL) | 0.0035 | – | 96.8 | 3.64e+07 | 0.0783 | – | – | – | –
